Results on 8 molecules are retold here after patent US20210206763A1, “Anti-Proliferative Agents” (FEMTOGENIX LIMITED, priority 2015, published 2021).

Series [1] relates to AP-1 Transcription Factor duplex DNA sequence. Description: FRET DNA melting assay with transcription factor duplex DNA. It is filed as binding. The following applies: 1 μM ligand concentration; 24 hours incubation. The procedure: (§1) Oligonucleotide sequences used for the FRET assays were purchased from Eurogentec, Southampton, UK: TAMRA (6-carboxytetramethylrhodamine) and FAM (6-carboxyfluorescein) are acceptor and donor fluorophores, respectively. From 20 μM stock solutions, 400 nM solutions in FRET buffer (optimized as 50 mM potassium, 50 mM cacodylate, pH 7.4) were prepared prior to use. The oligonucleotides were annealed through heating the samples to 90° C. for 10 mins followed by cooling to room temperature and storing at this temperature for 5 h. Dilutions from the initial 5 mM DMSO stock solution were performed using FRET buffer. Annealed DNA (50 μL) and sample solution (50 μL) were added to each well of a 96-well plate (MJ Research, Waltham, Mass.), and processed in a DNA Engine Opticon (MJ Research). Fluorescence readings were taken at intervals of 0.5° C. over the range 30-100° C., with a constant temperature maintained for 30 seconds prior to each reading. Incident radiation of 450-495 nm was used, with detection at 515-545 nm. The raw data were imported into the program Origin (Version 7.0, OringinLab Corp.), and the graphs were smoothed using a 10-point running average, and then normalized. Determination of melting temperatures was based on values at the maxima of the first derivative of the smoothed melting curves using a script. The difference between the melting temperature of each sample and that of the blank (ΔTm) was used for comparative purposes.

Series [2] has as its system NFκB Transcription Factor duplex DNA sequence. The series is described as above. The following applies: 1 μM ligand concentration; 24 hours incubation. Format: binding. The procedure:
as §1

Series [3] deals with HeLa (Cervical cancer cell line). Kind of series: MTT cytotoxicity assay of C8-linked PDD monomers. Format: cell-based. As to conditions: Homo sapiens, 72 hours exposure. As for the experimental part: (§2) MDA MB231 (triple negative human breast cancer) was obtained from the American Type Culture Collection. The cell-line was maintained in monolayer culture in 75 cm^2 flasks (TPP, Switzerland) under a humidified 5% CO2 atmosphere at 37° C. The MDA MB231 cell line was maintained in high glucose DMEM (4.5 g/l; Invitrogen), foetal bovine serum (10%, Biosera UK), non-essential amino acids (ix; Invitrogen), L-glutamine (2 mM; Invitrogen) and Penicillin-Streptomycin (1% v/v, Invitrogen). The HeLa cell line was maintained in Dulbecco's Modified Eagles Media (DMEM; Invitrogen) supplemented with foetal bovine serum (10% v/v; Invitrogen), L-glutamine (2 mM; Invitrogen), non-essential amino acids (lx; Invitrogen) and Penicillin-Streptomycin (1% v/v, Invitrogen). For passaging, cells were washed with PBS (GIBCO 14040, Invitrogen, UK), incubated with trypsine (GIBCO 25300, Invitrogen, UK), and re-seeded into fresh medium. For seeding, cells were counted using a Neubauer haemocytometer (Assistant, Germany) by microscopy (Nikon, USA) on a non-adherent suspension of cells that were washed in PBS, trypsinised, centrifuged at 8° C. at 8000 rpm for 5 min and re-suspended in fresh medium.
(§3) The cells were grown in normal cell culture conditions at 37° C. under a 5% CO2 humidified atmosphere using appropriate medium. The cell count was adjusted to 10^5 cells/ml and 5,000-20,000 cells were added per well depending on the cell line. The cells were incubated for 24 hours and 1 μl of the appropriate inhibitor concentrations were added to the wells in triplicates. After 72 h of continuous exposure to each compound, the cytotoxicity was determined using the 3-(4,5-Dimethylthiazol-2-yl)-2,5-diphenyltetrazolium bromide (MTT) (Lancaster Synthesis Ltd, UK) colorimetric assay.^[34 Absorbance was quantified by spectrophotometry at λ=570 nm (Envision Plate Reader, PerkinElmer, USA). IC50 values were calculated by a dose-response analysis using the GraphPad Prism® software.

Series [4] deals with MDA MB 231 (Triple negative breast cancer cell line). Description: MTT cytotoxicity assay of C8-linked PDD monomers. Format: cell-based. As to conditions: Homo sapiens, 72 hours exposure. The procedure: as §2, §3
(In general: Formazan colour is commonly taken as a measure of viable cells.)

The subject of series [5] is NFκB transcription factor binding sequence (duplex oligonucleotide). Description: DNA adduct formation by HPLC. As to conditions: 4:1 molar ratio ligand:oligonucleotide, room temperature. As for the experimental part: Interaction of C8-linked PDD monomers with duplex transcription factor consensus sequence was studied with an HPLC assay utilizing a X-bridge MS C18 2.5 μM OST column (2.3×50 mm) and a gradient of 40% acetonitrile/water and 100 mM TEAB ([…])/water as mobile phase with a flow rate of 0.5 mL/min and UV detection at 254 nm. A 4:1 molar ratio of ligand:oligonucleotide was used, with each single-stranded oligonucleotide dissolved in 1 M ammonium acetate to form stock solutions of 1 mM. The oligonucleotides were initially annealed by heating their 1 mM solutions to 70° C. for 10 mins followed by gradual cooling over 8 hours and storage overnight at −20° C. Working solutions of oligonucleotides of 25 μM were then prepared by diluting the annealed stock solutions with 100 mM ammonium acetate. The ligands were dissolved in DMSO to form a stock solution of 10 mM which was stored at −20° C. for no longer than four months. Working solutions of the drug of 100 μM were prepared by diluting the stock solution with 100 mM ammonium acetate. The working solutions of the ligands were added to the working solution the oligonucleotides at RT, and the mixture incubated for different time intervals at room temperature.

Series [6] deals with fluorescently labelled DNA duplex 5′-AAAAAAAGAAATTTAAA-3′. Kind of series: FRET DNA melting of fluorescently labelled duplex. Format: binding. As to conditions: fragments of 41, FIG. 12B. The text has this: FRET DNA melting studies were undertaken on a fluorescently labelled duplex DNA sequence reacted with 41 and fragmented forms of the molecule (i.e, using intermediates 106, […] and 148). The sequence (FIG. 10) was designed to provide additional evidence that 41 can effectively stabilise a particular DNA sequence derived through the Footprinting studies (i.e., XGXWWWW where X represents any base, G represents guanine and W indicates adenine or thymine). […] The labels were fluorescein (F) and dabcyl (Q).
Oligonucleotides were obtained from ATDbio (Southampton, UK) in lyophilised form. They were labelled with a fluorophore molecule (F=fluorescein) at the 5′-end and a quencher molecule (Q=dabcyl) at the 3′-end of the complementary strand. Each oligonucleotide was dissolved in distilled H2O to form stock solutions of 100 μM. Working solutions of 5 μM were prepared by diluting the stock solution with distilled H2O.
The following buffers were used: 250 mM phosphate buffer pH 7.4 (consisting of sodium dihydrogen phosphate and sodium phosphate diluted in distilled H2O) and 5 M sodium chloride buffer. All buffers and distilled H2O were filtered through a 0.2 VIM filter prior to use.
For the FRET experiments stock solutions of 41, 106, 107 and 148 were prepared by dissolving the compounds in DMSO to give a concentration of 10 mM. From this stock solution, working solutions of the desired concentration were prepared by diluting the stock solution with distilled H2O.
The reaction mixture was comprised of 4 μL of 250 mM phosphate buffer (final concentration of 50 mM), 4 μL flourophor and 4 μL quencher molecule of the appropriate oligonucleotide for a final concentration of 0.2 μM, 4 μL 5 M sodium chloride (final concentration of 1 M NaCl), and 4 μL of distilled H2O. […] This mixture was analysed without prior annealing.
Fluorescence melting profiles were measured using a Roche LightCycler using a total reaction volume of 20 μL. […] Annealing steps and melting steps were all recorded and changes in fluorescence were measured at 520 nm. […]

For series [7] the following is noted: in vivo; cited from earlier work.

As to `COC(=O)c1cc2cc(NC(=O)c3cc(NC(=O)CCCOc4cc5c(cc4OC)C(=O)N4CCCC[C@H]4C=N5)cn3C)ccc2s1` [Compound 13, Methyl (S)-5-(4-(4-((2-methoxy-12-oxo-6a,7,8,9,10,12-hexa-hydrobenzo[e]pyrido[1,2-a][1,4]diazepin-3-yl)oxy)butanamido)-1-methyl-1H-pyrrole-2-carboxamido)benzo[b]thiophene-2-carboxylate], in series [1], the ΔTm AP-1 (1st transition) worked out at 11 °C and the ΔTm AP-1 (2ND transition) came to 19 °C. Also, in series [2], the ΔTm NFκB (1st transition) amounted to 12 °C and the ΔTm NFκB (2ND transition) amounted to 23 °C. The midpoint of inhibition in series [3], the IC50, lay at 0.6 ± 0.4 nM. For the same molecule, the IC50 (as a rule, the concentration that gives 50% inhibition) in series [4] is 64 ± 9.6 nM. Besides, the “DNA adduct formation (HPLC chromatogram)” value in series [5] is given as “DNA adduct formation”.
On to `COC(=O)c1cc2cc(NC(=O)c3nc(NC(=O)CCCOc4cc5c(cc4OC)C(=O)N4CCCC[C@H]4C=N5)cn3C)ccc2s1` [Compound 17, Methyl (S)-5-(4-(4-((2-methoxy-12-oxo-6a,7,8,9,10,12-hexa-hydrobenzo[e]pyrido[1,2-a][1,4]diazepin-3-yl)oxy)butanamido)-1-methyl-1H-imidazole-2-carboxamido)benzo[b]thiophene-2-carboxylate], for which, in series [1], the ΔTm AP-1 (1st transition) stood at 13 °C and the ΔTm AP-1 (2ND transition) was found to be 18 °C. Besides, in series [2], the ΔTm NFκB (1st transition) was found to be 11 °C and the ΔTm NFκB (2ND transition) amounted to 26 °C. This molecule also returned an IC50 in series [3] of 1.2 ± 0.8 nM. The concentration for half-maximal inhibition (IC50) in series [4] worked out at 21 ± 1.8 nM. Further, the “DNA adduct formation (HPLC chromatogram)” value in series [5] is on record as “DNA adduct formation”.
In the case of `COC(=O)c1cc(-c2ccc(NC(=O)c3nc(NC(=O)CCCOc4cc5c(cc4OC)C(=O)N4CCCC[C@H]4C=N5)cn3C)cc2)cn1C` [Compound 20, Methyl (S)-4-(4-(4-(4-((2-methoxy-12-oxo-6a,7,8,9,10,12-hexahydrobenzo[e]pyrido[1,2-a][1,4]diazepin-3-yl)oxy)butanamido)-1-methyl-1H-imidazole-2-carboxamido)phenyl)-1-methyl-1H-pyrrole-2-carboxylate], in series [1], the ΔTm AP-1 (1st transition) was 8 °C and the ΔTm AP-1 (2ND transition) came to 13 °C. Besides, in series [2], the ΔTm NFκB (1st transition) came out at 9 °C and the ΔTm NFκB (2ND transition) turned out to be 12 °C. In series [3], the IC50 was 0.14 ± 0.09 nM. The half-inhibitory concentration (IC50) in series [4] worked out at 0.3 ± 0.22 nM. Moreover, the “DNA adduct formation (HPLC chromatogram)” value in series [5] is listed as “DNA adduct formation”.
On to `COC(=O)c1cc(-c2ccc(NC(=O)c3cc(NC(=O)CCCOc4cc5c(cc4OC)C(=O)N4CCCC[C@H]4C=N5)cn3C)cc2)cn1C` [Compound 24, Methyl (S)-4-(4-(4-(4-((2-methoxy-12-oxo-6a,7,8,9,10,12-hexahydrobenzo[e]pyrido[1,2-a][1,4]diazepin-3-yl)oxy)butanamido)-1-methyl-1H-pyrrole-2-carboxamido)phenyl)-1-methyl-1H-pyrrole-2-carboxylate], for which, in series [1], the ΔTm AP-1 (1st transition) came to 9 °C and the ΔTm AP-1 (2ND transition) stood at 15 °C. Also, in series [2], the ΔTm NFκB (1st transition) turned out to be 10 °C and the ΔTm NFκB (2ND transition) stood at 14 °C. The molecule also gave a half-inhibitory concentration (IC50) in series [3] of 1 ± 0.12 nM. In series [4], this molecule had a concentration for half-maximal inhibition (IC50) of 0.8 ± 0.66 nM. Moreover, the “DNA adduct formation (HPLC chromatogram)” value in series [5] was “DNA adduct formation”.
`COc1cc2c(cc1O)N=C[C@@H]1CCCCN1C2=O` [Compound 106, (S)-3-Hydroxy-2-methoxy-7,8,9,10-tetrahydrobenzo[e]pyrido[1,2-a][1,4]diazepin-12(6aH)-one]: in series [6], the “DNA stabilisation (FRET melting)” value is listed as “little DNA stabilisation”.
The same measure, in the same setting: with `COc1cc2c(cc1OCCCC(=O)O)N=C[C@@H]1CCCCN1C2=O` [Compound 107, (S)-4-((2-Methoxy-12-oxo-6a,7,8,9,10,12-hexahydrobenzo[e]pyrido[1,2-a][1,4]diazepin-3-yl)oxy)butanoic acid] the entry was “little DNA stabilisation”; with `Cn1cc(N)cc1C(=O)Nc1ccc(-c2cc(C(=O)Nc3ccc(N)cc3)n(C)c2)cc1` [Compound 148, 4-Amino-N-(4-(5-((4-aminophenyl)carbamoyl)-1-methyl-1H-pyrrol-3-yl)phenyl)-1-methyl-1H-pyrrole-2-carboxamide], “little DNA stabilisation”.
As for `C=C1C[C@H]2C=Nc3cc(OCCCOc4cc5c(cc4OC)C(=O)N4CC(=C)C[C@H]4C=N5)c(OC)cc3C(=O)N2C1` [SJG-136], the “adverse effects in Phase I clinical evaluation” value in series [7] is “lower-limb edema and fatigue”.
